ChEMBL document CHEMBL1142601, “Biphenyl glycosides from the fruit of Pyracantha fortuneana” (J Nat Prod, 2006)

Target: T1, Tyrosinase (Homo sapiens, UniProt P14679)
T1 sequence (P14679 whole entry): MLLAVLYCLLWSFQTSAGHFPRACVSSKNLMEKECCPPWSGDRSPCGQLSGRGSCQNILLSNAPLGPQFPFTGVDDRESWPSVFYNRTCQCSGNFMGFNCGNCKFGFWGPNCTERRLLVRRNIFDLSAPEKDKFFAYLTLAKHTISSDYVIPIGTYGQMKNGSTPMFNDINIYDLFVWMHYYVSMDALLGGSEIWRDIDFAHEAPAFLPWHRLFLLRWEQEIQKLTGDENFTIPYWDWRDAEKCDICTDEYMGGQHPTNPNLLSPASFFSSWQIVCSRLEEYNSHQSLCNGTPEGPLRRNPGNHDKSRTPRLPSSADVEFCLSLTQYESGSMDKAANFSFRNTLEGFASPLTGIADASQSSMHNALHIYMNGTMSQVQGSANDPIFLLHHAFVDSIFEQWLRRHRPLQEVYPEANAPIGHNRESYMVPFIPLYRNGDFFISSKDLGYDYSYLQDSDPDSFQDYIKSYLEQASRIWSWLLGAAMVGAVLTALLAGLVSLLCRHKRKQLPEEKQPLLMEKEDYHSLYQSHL
Assay: Inhibition of tyrosinase

IC50 [µM]	SMILES
450	COc1cc(-c2ccccc2O[C@@H]2O[C@H](CO)[C@@H](O)[C@H](O)[C@H]2O)cc(OC)c1O [FORTUNEANOSIDE C]
140	COc1cc(-c2ccc(O[C@@H]3O[C@H](CO)[C@@H](O)[C@H](O)[C@H]3O)c(O)c2)cc(OC)c1O [FORTUNEANOSIDE E]
70	COc1cc(-c2cccc(O[C@@H]3O[C@H](CO)[C@@H](O)[C@H](O)[C@H]3O)c2O)cc(OC)c1O [FORTUNEANOSIDE D]
2210	COc1ccccc1-c1cc(OC)c(O)c(OC)c1O[C@@H]1O[C@H](CO)[C@@H](O)[C@H](O)[C@H]1O [FORTUNEANOSIDE B]
